Assay results: ChEMBL document CHEMBL1147894, “Amphiphilic polyether branched molecules to increase the circulation time of cationic particles” (Bioorg Med Chem, 2007)
Calls of active or inactive are those of the source. The rule behind the calls is not given here.

What was measured:
Mus musculus = species on record: Mus musculus; test: Biodistribution in C57BL/6 mouse blood after 30 mins; type: ADME, organism-based; details: in vivo, 0.5 h
B16 = test: Decrease in transfection efficacy in […] B16 cells assessed by luciferase assay; type: functional, cell-based

Activity (Mus musculus)	SMILES	Activity (B16)
8%	CCCCCCCCCCCCCCCCCCN(CCCCCCCCCCCCCCCCCC)C(=O)CNC(=O)CNC(=O)CNC(=O)OCC(COC(CO)CO)COC(CO)CO	Active
2.7%	CCCCCCCCCCCCCCN(CCCCCCCCCCCCCC)C(=O)CNC(=O)CNCCCN(CCCN)CCCN.Cl.Cl.Cl.Cl	–
